Experimental data as given in PubChem BioAssay AID743168 (Sanford-Burnham Center for Chemical Genomics, 2013).
The source made the active and inactive calls.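 How the source made its calls: active means compounds whose IC50 here is at most triple their IC50 in the earlier fluorescent lipid screen; inactive means the rest.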

What follows are compounds tested against Diacylglycerol O-acyltransferase 1 (Homo sapiens) (UniProt O75907) (assay: DGAT-1 acyltransferase activity inhibition, radiometric – biochemical, recombinant hDGAT-1, [14C]-TAG formation, radiolabel, counter-screen for TAG accumulation inhibitor project, dose response (AID 743168)). Settings: scintillation.
Chain of Diacylglycerol O-acyltransferase 1 (Homo sapiens) (O75907 whole entry, looked up): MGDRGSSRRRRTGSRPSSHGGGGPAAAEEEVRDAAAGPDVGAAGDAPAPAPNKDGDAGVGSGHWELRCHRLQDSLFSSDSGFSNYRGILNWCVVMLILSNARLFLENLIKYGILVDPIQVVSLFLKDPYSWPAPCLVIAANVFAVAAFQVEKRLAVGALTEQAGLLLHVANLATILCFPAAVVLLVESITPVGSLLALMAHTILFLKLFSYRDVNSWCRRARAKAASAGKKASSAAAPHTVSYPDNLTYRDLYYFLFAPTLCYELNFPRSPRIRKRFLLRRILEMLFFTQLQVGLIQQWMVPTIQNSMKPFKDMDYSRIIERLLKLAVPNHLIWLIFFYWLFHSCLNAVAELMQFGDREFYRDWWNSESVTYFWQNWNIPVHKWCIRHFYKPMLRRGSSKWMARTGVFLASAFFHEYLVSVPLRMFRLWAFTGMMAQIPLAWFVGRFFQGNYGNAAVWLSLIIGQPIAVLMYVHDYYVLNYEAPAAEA

O=C(Nc1cccc(-c2nc3ccccc3[nH]2)c1)c1cccc2c1C(=O)N(CC1CC1)C2 was tested. Which IC50 did it give?
Its IC50 is > 50 µM (inactive).

How did the IC50 turn out when COCCN1Cc2cccc(C(=O)Nc3cccc(-c4nc5ccccc5[nH]4)c3)c2C1=O was run?
Its IC50 is > 50 µM (inactive).

How did the IC50 turn out when CCCCN1Cc2cccc(C(=O)Nc3cccc(-c4nc5ccccc5[nH]4)c3)c2C1=O was run?
Its IC50 is > 50 µM (inactive).

With O=C(Nc1cccc(-c2nc3ccccc3[nH]2)c1)c1cccc2c1C(=O)N(CCOc1ccccc1)C2 as the compound, how does the IC50 read?
Its IC50 is > 50 µM (inactive).

How did the IC50 turn out when CCOCCN1Cc2cccc(C(=O)Nc3cccc(-c4nc5ccccc5[nH]4)c3)c2C1=O was run?
Its IC50 is > 50 µM (inactive).
